The record followed here is patent publication US7906491B2 (Univisitair Medisch Centrum Utrecht, priority 2002, dated 2011).

Holding throughout (type): cell-based
Test [1] deals with CREB. Kind of test: CREB phosphorylation (read-out for PKA) in NIH3T3-A14-Epac1 cells. The conditions noted are these: 15 min, 8-Br-cAMP 1 mM. How it is done:
(§1) Upper panel: NIH3T3-A14-Epac1 cells were treated for 15 min with 8-Br-cAMP, and cell lysates were analyzed for activation of Rap1 and phosphorylation of CREB. Lower panel: NIH3T3-A14-Epac1 cells were treated in duplicate for 15 min with increasing concentrations of 8-pCPT-2′-O-Me-cAMP. Cells were lysed and equal amounts of cell lysate were incubated with precoupled GST-RalGDSRBD and Rap1 was assayed by immunoblotting with Rap1 antibody.
(§2) Therefore, 8-CPT-2′-O-Me-cAMP was tested in NIH3T3-A14-Epac1 cells for the activation of Epac, using Rap1 as a read-out, and of PKA, using phosphorylation of the common PKA substrate CREB 29 as a read-out.
Antibodies against phosphorylated CREB (directed against phosphorylated Serl33) were obtained from Cell Signalling (Beverly, Mass., USA), and antibodies against K-Rev/Rap1 and polyclonal anti-HA were obtained from Santa Cruz Biotechnology (Santa Cruz, Calif., USA). The following inhibitors and stimuli were used at concentrations indicated, unless stated otherwise: RGD peptide (100 μM) and H-89 (10 μM) was obtained from Biomol Research Laboratories Inc. (Plymouth Meeting, Pa., USA). 8-Br-cAMP (1 mM) was obtained from BIOLOG Life Science Institute (Bremen, Germany). TPA (12-O-tetradecanoylphorbol-13-acetate) was obtained from Sigma (Steinheim, Germany) and was used at a concentration of 100 ng/ml. […]

Test [2] concerns Rap1. Kind of test: Rap1 activation assay (read-out for Epac) in NIH3T3-A14-Epac1 cells. Conditions: 15 min, 8-Br-cAMP 1 mM. How it is done:
as §1, §2
NIH3T3-A14 cells, stably expressing Epac1, were grown in DMEM with 10% fetal calf serum and 2 μg/ml puromycin. NIH-OVCAR3 (Ovcar3) cells were maintained in RPMI with 10% fetal calf serum. Transient transfection of Ovcar3 cells was performed using the FuGENE 6 transfection reagent (Roche Diagnostics, Mannheim, Germany) according to the manufacturer's procedures, using 6 μg total DNA including a CMV-luciferase plasmid (0.2 μg).
Rap activation assays were performed as described previously (16-18). Briefly, cells were lysed in lysis buffer containing 10% glycerol, 1% Nonidet P-40, 50 mM Tris-Cl pH7.5, 200 mM NaCl, 2mM MgCl2, 1 μM leupeptin, 0.1 μM aprotinin, 5 mM NaF, 1 mM NaVO3. Lysates were clarified by centrifugation and incubated with GST-tagged RalGDS-RBD pre-coupled to glutathione beads to specifically pull down the GTP-bound forms of Rap1. Samples were incubated for 1 hr at 4° C. while tumbling. Beads were washed four times in lysis buffer, and the remaining fluid was removed with an insulin syringe. Proteins were eluted with Laemmli sample buffer and analyzed by sodium dodecyl sulphate (SDS)-polyacrylamide gel electrophoresis and Western blotting using Rap1 antibodies. As a control, Rap1 levels in whole cell lysates were determined.

Test [3] has as its system Ovcar3 cells. Kind of test: Adhesion assay of Ovcar3 cells to fibronectin. The conditions noted are these: H-89 10 μM, 8-pCPT-2′-O-Me-cAMP 100 μM, FIG. 7C. The method, then: A: 8-pCPT-2′-O-Me-cAMP stimulates cell adhesion. Upper panel: quantification of Ovcar3 cells adhering to fibronectin after treatment with increasing concentrations of 8-pCPT-2′-O-Me-cAMP. Lower panel: Ovcar3 cells were treated with increasing concentrations of 8-pCPT-2′-O-Me-cAMP for 15 min, cells were lysed and analyzed for activation of Rap1 (upper blot) and CREB (lower blot). Total Rap1 levels are shown (middle blot). B: 8-pCPT-2′-O-Me-cAMP increases the rate of cell adhesion. Upper panel: quantification of Ovcar3 cells adhering to fibronectin at various time points. Lower panel: cells were treated with 60 μM 8-pCPT-2′-O-Me-cAMP for the indicated times. Cell lysates were analyzed for activation of Rap1 (upper blot) and CREB (lower blot). Total levels of Rap1 in cell lysates are shown (middle blot). C: Ovcar3 cells were either pre-incubated at 37° C. for 30 min with the PKA inhibitor H-89 (10 μM) 30 min prior to seeding onto the wells (‘Short’) or H-89 was added 30 min prior to trypsinization and during the recovery period (‘Long’) and seeded onto wells in the absence or presence of 8-pCPT-2′-O-Me-cAMP (100 μM). Cells were allowed to adhere for 1 h. D, cAMP-induced adhesion to fibronectin is blocked by inhibitors of Rap1. Left panel: Ovcar3 cells were transiently transfected with either mock DNA, increasing concentrations of HA-Rap1GAP II (0.5, 1, 2 or 6 μg, respectively), HA-Rap1GAPI (6 μg) or HA-RBD of RalGDS (6 μg), respectively. Cells were treated with 8-Br-cAMP or 8-pCPT-2′-O-Me-cAMP and adhesion to fibronectin was determined. […]
In functional assays, 8-pCPT-2′-O-Me-cAMP appeared to induce integrin-mediated cell adhesion through Epac and Rap1. […] The cells were seeded onto fibronectin-coated plates in the presence or absence of 8-pCPT-2′-O-Me-cAMP and the amount of cells that adhered after a certain period of time was quantified. […]
24-well plates were coated overnight with 2 μg/ml fibronectin (Sigma, St. Louis, Mo., USA) in sodium bicarbonate buffer (Sigma, St. Louis, Mo., USA). […] Cells were centrifuged, counted and resuspended at 3×10^5 cells/ml in serum-free RPMI with 0.5% BSA. […]

Test [4] deals with Rap1. Kind of test: Rap1 activation assay in Ovcar3 cells. The conditions noted are these: H-89 10 μM, FIG. 7C. The method, then: A: 8-pCPT-2′-O-Me-cAMP stimulates cell adhesion. Upper panel: quantification of Ovcar3 cells adhering to fibronectin after treatment with increasing concentrations of 8-pCPT-2′-O-Me-cAMP. Lower panel: Ovcar3 cells were treated with increasing concentrations of 8-pCPT-2′-O-Me-cAMP for 15 min, cells were lysed and analyzed for activation of Rap1 (upper blot) and CREB (lower blot). Total Rap1 levels are shown (middle blot). B: 8-pCPT-2′-O-Me-cAMP increases the rate of cell adhesion. Upper panel: quantification of Ovcar3 cells adhering to fibronectin at various time points. Lower panel: cells were treated with 60 μM 8-pCPT-2′-O-Me-cAMP for the indicated times. Cell lysates were analyzed for activation of Rap1 (upper blot) and CREB (lower blot). Total levels of Rap1 in cell lysates are shown (middle blot). C: Ovcar3 cells were either pre-incubated at 37° C. for 30 min with the PKA inhibitor H-89 (10 μM) 30 min prior to seeding onto the wells (‘Short’) or H-89 was added 30 min prior to trypsinization and during the recovery period (‘Long’) and seeded onto wells in the absence or presence of 8-pCPT-2′-O-Me-cAMP (100 μM). Cells were allowed to adhere for 1 h. D, cAMP-induced adhesion to fibronectin is blocked by inhibitors of Rap1. Left panel: Ovcar3 cells were transiently transfected with either mock DNA, increasing concentrations of HA-Rap1GAP II (0.5, 1, 2 or 6 μg, respectively), HA-Rap1GAPI (6 μg) or HA-RBD of RalGDS (6 μg), respectively. Cells were treated with 8-Br-cAMP or 8-pCPT-2′-O-Me-cAMP and adhesion to fibronectin was determined. Right upper panel: luciferase counts of total input cells per well in the above experiment are shown. Right lower panel: expression of HA-Rap1GAPs in the above experiment is shown.
Rap activation assays were performed as described previously (16-18). […] Proteins were eluted with Laemmli sample buffer and analyzed by sodium dodecyl sulphate (SDS)-polyacrylamide gel electrophoresis and Western blotting using Rap1 antibodies. As a control, Rap1 levels in whole cell lysates were determined.

As to `Nc1ncnc2c1nc(Br)n2[C@@H]1O[C@@H]2COP(=O)(O)O[C@H]2[C@H]1O` [Compound 8-Br-cAMP, 8-Br-cAMP, reference compound], the “phosphorylation of CREB” value in test [1] is “induced both the activation of Rap1 and the phosphorylation of CREB”. Also, in test [2], the “activation of Rap1” value is “induced both the activation of Rap1”.

Turning to `O=S(=O)(NCCNC/C=C/c1ccc(Br)cc1)c1cccc2cnccc12` [Compound H-89, H-89, reference compound], the “effect on 8-pCPT-2′-O-Me-cAMP induction of adhesion” value in test [3] is “insensitive”. For the same compound, the “effect on 8-pCPT-2′-O-Me-cAMP activation of Rap1” value in test [4] was “insensitive”.
